Measured values reported in article PMC9609429 (Pharmaceuticals, 2022).

Legend:
[1] = test system: adrenaline-induced arrhythmia in rats; conditions: administered intravenously; cited from earlier work
α1-adrenoceptor = α1-adrenoceptor radioligand binding assay ([3H]-prazosin, rat cerebral cortex); conditions: rat cortex tissue
Procedure: The α1-, α2-, and β1-adrenoceptor radioligand binding assay was carried out on the rat cerebral cortex. [^3H]-prazosin (19.5 Ci/mmol, α1-adrenoceptor), [^3H]-clonidine (70.5 Ci/mmol, α2-adrenoceptor), and [^3H]-CGP-12177 (48 Ci/mmol, β1-adrenergic receptor) were used as specific ligands. The brains were homogenized using ULTRA-TURRAX homogenizer in 10 mL of an ice-cold 50 mM Tris–HCl buffer (pH 7.6). Homogenates were centrifuged at 20,000× g for 20 min (0–4 °C). Next, the cell pellet was resuspended in the Tris–HCl buffer and centrifuged again. Radioligand binding assays were performed in plates (MultiScreen/Millipore). The final incubation mixture (volume 300 μL) consisted of 240 μL of the tissue suspension, 30 μL of radioligand solution, and 30 μL of the buffer containing 7–8 concentrations of the tested compound. […] The incubation was terminated by rapid filtration through Whatman GF/C filters using a vacuum manifold (Millipore). The filters were then washed twice with the assay buffer and placed in scintillation vials with a liquid scintillation cocktail. Radioactivity was measured in a WALLAC 1409 DSA liquid scintillation counter (Perkin Elmer, Waltham, MA, USA). All the assays were made in duplicates and the inhibitory constants (Ki) were estimated.

Adrenergic Receptors—pKi α1 (α1-adrenoceptor) | SMILES | ED50 (adrenaline-induced arrhythmia) [1] [mg/kg]
 | COc1ccccc1OCCNCC(O)COc1cccc2[nH]c3ccccc3c12 (centres unmarked) [carvedilol] | 0.36
8.04 | Cc1ccc(N(CC2=NCCN2)c2cccc(O)c2)cc1 [Phentolamine, phentolamine, reference compound] | 
